Measured values from US7271148B2, “Inhibition of cellular proteases” (The Board of Regents of The University of Texas System, priority 1999, dated 2007).
Where a SMILES comes first, the peptide text is derived from it. The star is where a group is joined. Cbz = O=C(OCc1ccccc1)*

Experiments:
[1] = test system: p21^cip1 abundance in mock-infected LU cells; experiment: Western blot of p21cip1 abundance in mock-infected, density-arrested LU cells; format: cell-based, human
Method: (§1) Cell culture and growth arrest. LU cells (3) were propagated in Eagle's minimum essential medium containing 10% fetal bovine serum and penicillin (100 units/ml)/streptomycin (100 μg/ml) in a 5% CO2 in air atmosphere. The cells were density-arrested as described previously in detail (18).
(§2) Virus stocks and productive infection. The AD169 strain of HCMV was propagated in LU cells as previously described in detail (6). The infectivity of virus stocks was determined by plaque assay (3). Virus stocks typically had infectivities between 8.0×10^6 and 4.0×10^7 plaque-forming units (PFU)/milliliter. LU cells were infected with HCMV as described in detail by Bresnahan et al. (18). Virus stocks and cell cultures were routinely examined for mycoplasma.
(§3) Western blots. Polyclonal or monoclonal antibody for p21^cip1 was obtained from Santa Cruz Biotechnology, Inc. (Santa Cruz, Calif.). Monoclonal antibodies against m-calpain, μ-calpain or calpastatin were generously provided by Dr. R. I. Mellgren (see also 75). Cells were harvested as described previously (18) by dislodging the cells with a cell lifter in phosphate buffered saline. The cells were collected by sedimentation and lysed in NP-40 lysis buffer [50 mM Tris, pH 7.4, 50 mM NaCl, 0.5% NP-40, and 1 mM NaVO3, 50 mM NaF, 1mM phenylmethylsulfonyl fluoride (PMSF), 1 mM dithiothreitol (DTT), 25 μg/ml trypsin inhibitor, 25 μg/ml aprotinin, 1 mM benzamide, and 25 μg/ml pepstatin A added just before use]. Cellular debris was removed by sedimentation and the supernatant fluids were reserved. The protein concentration was determined by the BCA protein assay (Pierce, Rockford, Ill.). Whole cell extracts (40 μg/lane) were fractionated by SDS-polyacrylamide gel electrophoresis (PAGE), and the polypeptides were transferred to nitrocellulose membranes (Bio-Rad Laboratories, Hercules, Calif.) as described previously (18). Antigen-antibody reactions were detected with the enhanced chemiluminescent assay (Amersham Pharmacia Biotech) following the manufacturer's recommendations.
FIGS. 5 and 6. The effect of MG132, an inhibitor of proteasome degradation, on p21^cip1 abundance in HCMV- or mock-infected, density-arrested LU cells. 5. LU cells were density arrested, as described in Materials and Methods. The cell cultures were HCMV (5 PFU/cell)- or mock-infected and then exposed to selected concentrations of MG132 at 24 hr PI. Cell lysates were prepared at 30 hr PI (i.e., 6 hr after […] treatment), and 40 μg of protein from each lysate was resolved by SDS-PAGE. The proteins were transferred to nitrocellulose and probed with antibodies against p21^cip1. Control, cells cultured in the absence of MG132 or its solvent, DMSO. 0, DMSO solvent control, consisting of cells treated with the same concentration of DMSO (0.1%) present in the cultural fluids containing highest concentration of MG132 (10 μM). 6. Represents the abundance of p21^cip1 after MG132 treatment determined by densitometry of the data illustrated in FIG. 5. The data for mock-infected cells (open bars) were calculated relative to the p21^cip1 abundance in untreated mock-infected cells, while the data for HCMV-infected cells (closed bars) were determined relative to the p21^cip1 abundance in untreated HCMV-infected cells.
FIGS. 7 and 8. […]
At the times indicated in the FIG., whole cell lysates were prepared, and 40 μg of protein from each lysate was analyzed by SDS-PAGE. […]

[2] = test system: p21^cip1 abundance in HCMV-infected LU cells; experiment: Western blot of p21cip1 abundance in HCMV-infected, density-arrested LU cells; format: cell-based, human
Method: as §1, §2
as §3, with “recommendations. […]” for “recommendations.”
FIGS. 9 and 10. The concentration effect of E64d on p21^cip1 abundance in HCMV-infected cells. 9: LU cells were density arrested as described in Materials and Methods. The cells were HCMV (5 PFU/cell) or mock infected, and at 48 hr PI were treated with selected concentrations of E64d. Whole cell lysates were prepared 6 hr later, and 40 μg of protein from each lysate was resolved by SDS-PAGE. The proteins were transferred to nitrocellulose and probed with antibodies to p21^cip1. Mock: mock-infected cells in the absence of drug. Control, untreated HCMV-infected cells. 0, DMSO solvent control, consisting of HCMV-infected cells treated with the same concentration of DMSO solvent (0.1%) contained in the highest concentration of E64d. 10: Represents the abundance of p21^cip1 determined by densitometric analysis of the data in FIG. 9.
FIGS. 11 and 12. The concentration effect of Z-Leu-Leu-H on p21^cip1 abundance in HCMV-infected cells. 11. LU cells were density arrested as described in Materials and Methods. The cells were HCMV (5 PFU/cell) infected, and at 48 hr PI were treated with selected concentrations of Z-Leu-Leu-H. Whole cell lysates were prepared 6 hr later, and 40 μg of protein from each lysate was resolved by SDS-PAGE. The proteins were transferred to nitrocellulose and probed with antibodies to p21^cip1. Mock, Control, and 0 are defined as in the legend to FIG. 9. 12 : Represents the abundance of p21^cip1 determined by densitometric analysis of the data in FIG. 11.
FIGS. 13 and 14. The time course for the effect of E64d on p21^cip1 abundance in HCMV-infected, density-arrested cells. 13: LU cells were density arrested, as described in Materials and Methods. The cells were HCMV (5 PFU/cell) or mock infected, and at the intervals indicated in the Fig., beginning 1 hr after infection, subsets of the cells were treated with E64d (100 μM). […]

Row | Structure (SMILES) | increase in p21^cip1 abundance relative to DMSO solvent control or cells in the absence of any chemical ([1]; MG132 10 μM, mock-infected density-arrested LU cells, densitometry of Western blot (FIGS. 5 and 6)) [fold] | slope of the concentration effect on p21^cip1 abundance (linear regression analysis) ([1]; mock-infected cells, MG132 0 to 10 μM, p<0.01) | change in p21^cip1 abundance (in words) ([1]; mock-infected density-arrested LU cells, MG132 0 to 10 μM) | slope of the concentration effect on p21^cip1 abundance (linear regression analysis) ([2]; HCMV-infected cells, MG132 0 to 10 μM, p<0.01) | change in p21^cip1 abundance (in words) ([2]; HCMV-infected cells, MG132 2.5 μM to 10 μM, compared with mock-infected cells) | p21^cip1 abundance as % of that measured in mock-infected cells ([2]; 100 μM, HCMV-infected cells treated at 48 hr PI, lysates 6 hr later) | protection of p21^cip1, concentration effect (in words) ([2]; HCMV-infected cells treated at 48 hr PI for 6 hr, selected concentrations up to 100 μM)
1 | CC(C)C[C@@H](C=O)NC(=O)[C@H](CC(C)C)NC(=O)[C@H](CC(C)C)NC(=O)OCc1ccccc1 [MG132] (Cbz-Leu-Leu-Leu-aldehyde) | 3.6 | 0.33 | concentration-dependent increase in the abundance of p21^cip1 | 0.19 | smaller increases in p21^cip1 abundance | – | –
2 | CC(C)CC(C=O)NC(=O)C(CC(C)C)NC(=O)OCc1ccccc1 (stereo not drawn) [Z-Leu-Leu-H] | – | – | – | – | – | about 72% | protected p21^cip1 in a concentration-dependent manner
